From PMC11847541, “Liver fatty acid binding protein FABP1 transfers substrates to cytochrome P450 4A11 for catalysis” (The Journal of Biological Chemistry, 2025)

Target: T1, P450 4A11 (Homo sapiens, UniProt Q02928)
T1 sequence (Q02928 5-519): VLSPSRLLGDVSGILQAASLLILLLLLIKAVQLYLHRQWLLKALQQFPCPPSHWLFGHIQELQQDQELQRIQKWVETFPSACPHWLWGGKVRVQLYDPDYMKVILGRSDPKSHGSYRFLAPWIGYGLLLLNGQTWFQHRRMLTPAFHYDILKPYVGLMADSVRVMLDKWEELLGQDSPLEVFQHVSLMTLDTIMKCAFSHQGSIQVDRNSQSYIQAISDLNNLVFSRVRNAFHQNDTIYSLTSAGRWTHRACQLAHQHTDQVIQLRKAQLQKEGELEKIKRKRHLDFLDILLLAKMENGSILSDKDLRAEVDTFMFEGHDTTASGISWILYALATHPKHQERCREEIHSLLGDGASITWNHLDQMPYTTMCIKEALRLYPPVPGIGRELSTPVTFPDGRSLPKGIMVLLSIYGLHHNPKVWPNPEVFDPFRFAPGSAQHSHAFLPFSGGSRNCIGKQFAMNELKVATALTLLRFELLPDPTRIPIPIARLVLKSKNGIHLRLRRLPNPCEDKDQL
Assay type: biochemical
Design: made in house; host or cells: E. coli
Description: To differentiate between the two possible roles of FABP1 in P450 catalysis (competitive binder versus direct transfer, Fig. 2), two catalytic experiments testing palmitate oxidation were designed: one in which the FABP1 concentration was varied with a fixed concentration of palmitate (Fig. 12A) and another performed vice versa (Fig. 12B).
Dashed lines are the predicted kinetic data from the free ligand model (blue) and the direct transfer model (red) using the experimentally determined rate constants (Table 1, Fig. 2). A reaction performed without the addition of FABP1 (open circles) was also fit to a modeled curve (black dashed line), which utilizes only the rate constants determined for P450 4A11. Error bars reflect standard deviation of two replicate values, that is, range (if not visible, the deviation is too small to be represented). FABP1, fatty acid binding protein.
Potassium phosphate buffer (100 mM, pH 7.4), DTT (1 mM, added as described earlier ([44], [56])), and [1-^14C]-palmitate (5 μM, 20 mCi/mmol [added from a 1 mM stock in C2H5OH]) were added, and the mixture was split between vials. Just prior to the reaction preincubation, FABP1 (0–5 μM) was added (diluted so the same volume of FABP1 stock solutions were added to each sample). The mixtures were preincubated (5 min, 37 °C), and P450 4A11 activity was initiated with an NADPH-regenerating system ([78]), the addition of which brought reactions to their final volume (0.5 ml). Reactions (5 min) were quenched via the addition of CH2Cl2 (5 ml), were mixed with a vortex device, and were placed on ice. After the completion of the time course, the samples were centrifuged (1000g, 5 min, 23 °C) to separate layers, the organic layer (4 ml) was transferred to fresh vials, and the solvent was removed under a stream of N2. […] The column eluate was mixed (1:2, v/v) with FlowLogic U scintillation cocktail (LabLogic), and radioactivity (^14C) was detected using a β-RAM Model 5 radioflow detector (IN/US; LabLogic). Product was quantitated on the basis of its ^14C peak area relative to the summed radioactivity of the substrate and product.
To determine the reaction rate versus palmitate concentration, a similar reconstitution premixture was prepared with the modification that FABP1 (5 μM) was used instead of palmitate, and the concentrations of P450 4A11 and NADPH–P450 reductase were increased to 0.3 μM and 0.6 μM, respectively. […] The residue was dissolved in 50 μl C2H5OH, transferred to autosampler vials, and analyzed on LC–MS as described earlier (see “Quantitation of ligand-bound FABP1”) but set to operate in the negative-ion mode with the gradient mobile phase modified to (all % v/v: 0 min, 65% B; 0.5 min, 65% B; 5 min, 100% B; 7.5 min, 100% B; 7.6 min, 65% B; 9 min, 65% B). […]

Row | Compound | maximal observed rate of reaction (- cytochrome b5) | kcat estimate (- cytochrome b5, P450 4A11 0.05 µM) | maximum measurable rate of reaction (k2) (palmitate oxidation, without cytochrome b5, did not saturate) | reduction of enzyme activity
1 | CCCCCCCCCCCCCCCC(=O)O [Palmitate (C16), palmitate] | 12 ± 1 min⁻¹ | 0.483 ± 0.05 s⁻¹ | 0.2 s⁻¹ | –
2 | FABP1: delipidated recombinant liver fatty acid binding protein with C-terminal hexahistidine tag | – | – | – | ≤ 50%
